Tests used:
Lyn = Lyn (Homo sapiens, UniProt P07948); test: Cerep kinase screen; format: biochemical; conditions: read-out: % Inhibition of Control
Description: (§1) Kinase screening was performed by Cerep Laboratories (Celle l′Evescault, France). Compounds were screened in duplicate at a single concentration (10 μM). The results, set forth in Table 4 below, are expressed as percent inhibition of control specific activity: {100−[(measured specific activity/control specific activity)×100]} obtained in the presence of Compound XI and Compound V. ATP concentrations correspond to the ATP Km value for each individual kinase (Cerep, private communication). In each experiment, a reference compound was tested concurrently with Compound XI and Compound V in order to assess the assay reliability. IC50 values for the reference compounds were within accepted limits (±0.5 log units) of the historic average.

FLT-3 = FLT-3 (Homo sapiens, UniProt P36888); test: Cerep kinase screen; format: biochemical; conditions: read-out: % Inhibition of Control
Description: as §1

C-Met (HGFR) = C-Met (HGFR) (Homo sapiens, UniProt P08581); test: Cerep kinase screen; format: biochemical; conditions: read-out: % Inhibition of Control
Description: as §1

FGFR2 = FGFR2 (Homo sapiens, UniProt P21802); test: Cerep kinase screen; format: biochemical; conditions: read-out: % Inhibition of Control
Description: as §1

Fyn = Fyn (Homo sapiens, UniProt P06241); test: Cerep kinase screen; format: biochemical; conditions: read-out: % Inhibition of Control
Description: as §1

KDR (VEGFR2) = KDR (VEGFR2) (Homo sapiens, UniProt P35968); test: Cerep kinase screen; format: biochemical; conditions: read-out: % Inhibition of Control
Description: as §1

CSK = CSK (Homo sapiens, UniProt P41240); test: Cerep kinase screen; format: biochemical; conditions: read-out: % Inhibition of Control
Description: as §1

PDGFRβ = PDGFRβ (Homo sapiens, UniProt P09619); test: Cerep kinase screen; format: biochemical; conditions: read-out: % Inhibition of Control
Description: as §1

FLT-1 = FLT-1 (Homo sapiens, UniProt P17948); test: Cerep kinase screen; format: biochemical; conditions: read-out: % Inhibition of Control
Description: as §1

FGFR4 = FGFR4 (Homo sapiens, UniProt P22455); test: Cerep kinase screen; format: biochemical; conditions: read-out: % Inhibition of Control
Description: as §1

[1] = Cytotoxicity (MTS) in CHO/CYP1A1 cells; format: cell-based, Chinese Hamster; conditions: Chinese hamster; 96 h, MTS
Description: (§2) CHO/CYP1A1 and CHO/CYP1B1 cells: CHO cells containing recombinant CYP1A1 and recombinant CYP1B1 co-expressing P450 reductase, namely (CHO/CYP1A1) and (CHO/CYP1B1) respectively, were cultured using the standard culture medium for CHO cells supplemented with 0.4 mg/ml G418 disulfate salt and 0.3 μM methotrexate (Sigma/Aldrich Co., Gillingham, Dorset, UK) according to methods described in the literature (ibid.) Cells were grown at 37° C. in a humidified atmosphere plus 5% CO2.
(§3) A single cell suspension of CHO, CHO/CYP1A1 or CHO/CYP1B1 in 100 μl of the required cell culture medium was seeded onto 96-well plates at a cell density of 1500 cells per well and placed in an incubator for 24 h at 37° C. The stock solution of test compound in DMSO was then added to give a concentration range of 100, 30, 10, 3, 1, 0.3, 0.1, 0.03, 0.01, 0.003, 0.001, 0 μM. The final concentration of DMSO 0.2% was found not to affect the growth characteristics of the various CHO cell lines. The cells were incubated with the test compound for 96 h after which all the medium was aspirated and replaced with 100 μl of fresh medium to compensate for the loss of medium due to evaporation. The cells were incubated with 20 μl of the MTS assay reagent for 1.5 h and the absorbance per well at 510 nm measured using a plate reader. The mean absorbance and standard deviation for each test compound concentration was calculated versus a series of controls including (a) cells plus medium, (b) cell plus medium containing DMSO 0.2%, (c) medium alone, and (d) medium containing DMSO 0.2% and a range of test compound concentrations from 0 to 100 μM.
(§4) The MTS assay is a homogeneous, colorimetric method for determining the number of viable cells in proliferation, cytotoxicity or chemosensitivity assays (Cali J J, et al., “Luminescence-Based Methods and Probes for Measuring Cytochrome P450 Activity”, pp. 1-29. Promega Corporation, United States, 2004, the contents of which are incorporated herein by reference). The assay is composed of solutions of tetrazolium compound [3-(4,5-dimethylthiazol-2-yl)-5-(3-carboxymethoxyphenyl)-2-(4-sulfophenyl)-2H-tetrazolium, inner salt; MTS] and an electron coupling reagent (phenazine methosulfate) PMS. MTS is bioreduced by cells into a formazan product that is soluble in tissue culture medium. The absorbance of the formazan product at 510 nm can be directly measured from 96-well assay plates. The quantity of formazan product as measured by the amount of absorbance at 490 or 510 nm is directly proportional to the number of living cells in culture.

CHO/CYP1A1 cells = test: Cytotoxicity (MTS) in CHO/CYP1A1 cells; format: cell-based, Chinese Hamster
Description: as §2, §3, §4

wild-type CHO cells = test: Cytotoxicity (MTS) in wild-type CHO cells; format: cell-based, Chinese Hamster
Description: CHO cells: Chinese Hamster Ovary (CHO) DUKXB11 cells were grown under standard cell culture conditions in α-MEM supplemented with 10% FCS, 1 unit/ml each of hypoxanthine and thymidine, and penicillin (100 IU/ml) and streptomycin (100 μg/ml) according to literature methods (Ding S, et al., Arch. Biochem. Biophys., 348: 403-410, 1997, the contents of which are incorporated herein by reference). Cells were grown at 37° C. in a humidified atmosphere plus 5% CO2.
as §3, §4

CYP1A2 = molecular target: T1, CYP1A2 (Homo sapiens, UniProt P05177); test: CYP phenotyping, metabolic stability; format: in vitro ADME; conditions: CYP1A2 (40 pm/mL); 1 μM; after 60 minutes
T1 sequence (P05177 1-516): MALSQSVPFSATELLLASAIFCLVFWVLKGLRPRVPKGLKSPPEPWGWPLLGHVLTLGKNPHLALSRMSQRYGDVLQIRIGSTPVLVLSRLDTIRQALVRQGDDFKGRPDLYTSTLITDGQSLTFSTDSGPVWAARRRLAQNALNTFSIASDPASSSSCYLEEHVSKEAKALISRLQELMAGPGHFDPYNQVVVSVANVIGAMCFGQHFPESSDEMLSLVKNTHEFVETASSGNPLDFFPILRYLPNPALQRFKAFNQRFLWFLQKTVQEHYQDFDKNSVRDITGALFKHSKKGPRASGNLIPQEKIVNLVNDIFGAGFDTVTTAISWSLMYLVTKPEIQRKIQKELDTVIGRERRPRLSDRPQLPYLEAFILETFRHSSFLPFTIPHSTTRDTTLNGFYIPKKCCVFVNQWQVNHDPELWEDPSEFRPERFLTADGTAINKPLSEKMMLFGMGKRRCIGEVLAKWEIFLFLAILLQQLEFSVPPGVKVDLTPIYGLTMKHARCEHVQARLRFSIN
Description: (§5) As mentioned above, a feature of the compounds of the invention is their metabolism by CYP1B1 which is expressed at high frequency in a wide range of human cancers of different histogenetic types, but not in normal tissues. […] Compounds V and II were exposed to a panel of six CYPs (see Table 5 below).
(§6) CYP metabolism studies were performed by Cerep Laboratories (Redmond, Wash., USA). Compounds were screened in duplicate at 1 μM in the presence of CYP enzyme, NADP (1.3 mM), D-Glucose-6-phosphate (3.3 mM) and Glucose-6-phosphate dehydrogenase. Following incubation at 0 and 60 minutes, parent compound levels were determined using standard HPLC/MS/MS procedures. The results are expressed as percent parent compound remaining after 60 minutes.

CYP3A5 = CYP3A5 (Homo sapiens, UniProt P20815); test: CYP phenotyping, metabolic stability; format: in vitro ADME; conditions: CYP3A5 (10 pm/mL)
Description: as §5, §6

[2] = Cytotoxicity (MTS) in CHO/CYP1B1 cells; format: cell-based, Chinese Hamster; conditions: Chinese hamster; 96 h, MTS; read-out: CHO/CYP1B1 IC50
Description: as §2, §3, §4

CHO/CYP1B1 cells = test: Cytotoxicity (MTS) in CHO/CYP1B1 cells; format: cell-based, Chinese Hamster
Description: as §2, §3, §4

[3] = tested on: UTSCC-14 xenograft tumours; test: UTSCC-14 xenograft study in nu/nu mice; format: in vivo; conditions: 7, 20, 50 mg/kg i.p. daily for 29 days; tumours excised day 40; versus vehicle control
Description: The study compared the efficacy of Compound II with a vehicle control in UTSCC-14 xenograft tumours at three different dose levels.
Forty female nu/nu mice (7-9 wks old, weight 20-25 grams) were implanted sc with 2e6 UTSCC-14 cells and randomized 10 days later into […] (Table 1) with an approximate tumour volume of 100-150 mm-3. All groups were dosed daily ip for 29 days. On day 40 tumours were excised and weighed.
The UTSCC-14 cells used in the experiment were sourced from Professor Reidar Grénman's laboratory at the University of Turku, Department of Head and Neck Surgery, Turku University, Turku, Finland) and taken from a grade II primary tumour from the tongue of a head and neck cancer patient.
Compound II was dissolved/suspended in 100% cell culture grade DMSO at 40 mg/ml, before dilution with ddH20 immediately prior to dosing to make a stock 50% DMSO/Water solution. This stock solution was used to prepare all doses by dilution with 50% DMSO/Water to achieve the required concentration.
FIG. 2 compares the weight in grams of tumours excised on day 40 of the study. […] The study provides evidence that Compound II (and related compounds described here) are useful in the development of novel cancer therapies.

CYP2C9 = CYP2C9 (Homo sapiens, UniProt P11712); test: CYP phenotyping, metabolic stability; format: in vitro ADME; conditions: CYP2C9 (10 pm/mL); 1 μM; after 60 minutes
Description: (§7) Compounds V and II were exposed to a panel of six CYPs (see Table 5 below).
as §6

CYP2C19 = CYP2C19 (Homo sapiens, UniProt P33261); test: CYP phenotyping, metabolic stability; format: in vitro ADME; conditions: CYP2C19 (10 pm/mL); 1 μM; after 60 minutes
Description: as §7, §6

CYP2D6 = CYP2D6 (Homo sapiens, UniProt P10635); test: CYP phenotyping, metabolic stability; format: in vitro ADME; conditions: CYP2D6 (10 pm/mL); 1 μM; after 60 minutes
Description: as §7, §6

CYP3A4 = CYP3A4 (Homo sapiens, UniProt P08684); test: CYP phenotyping, metabolic stability; format: in vitro ADME; conditions: CYP3A4 (10 pm/mL); 1 μM; after 60 minutes
Description: as §7, §6

CYP3A5, sequence (P20815 whole entry, species assumed): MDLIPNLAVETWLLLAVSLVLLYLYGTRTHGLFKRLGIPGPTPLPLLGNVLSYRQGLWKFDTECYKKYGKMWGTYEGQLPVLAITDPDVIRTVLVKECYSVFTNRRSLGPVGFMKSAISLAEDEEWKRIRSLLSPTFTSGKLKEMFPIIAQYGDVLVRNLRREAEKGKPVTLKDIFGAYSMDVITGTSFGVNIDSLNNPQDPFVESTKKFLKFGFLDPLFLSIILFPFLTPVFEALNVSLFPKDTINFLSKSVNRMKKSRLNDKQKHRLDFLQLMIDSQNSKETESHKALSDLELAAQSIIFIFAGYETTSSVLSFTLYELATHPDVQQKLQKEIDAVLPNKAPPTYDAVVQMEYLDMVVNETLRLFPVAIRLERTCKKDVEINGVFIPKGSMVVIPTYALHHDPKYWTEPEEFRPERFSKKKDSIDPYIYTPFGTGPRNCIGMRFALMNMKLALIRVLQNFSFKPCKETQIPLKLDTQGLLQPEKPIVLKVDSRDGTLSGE
Lyn, sequence (P07948 whole entry, species assumed): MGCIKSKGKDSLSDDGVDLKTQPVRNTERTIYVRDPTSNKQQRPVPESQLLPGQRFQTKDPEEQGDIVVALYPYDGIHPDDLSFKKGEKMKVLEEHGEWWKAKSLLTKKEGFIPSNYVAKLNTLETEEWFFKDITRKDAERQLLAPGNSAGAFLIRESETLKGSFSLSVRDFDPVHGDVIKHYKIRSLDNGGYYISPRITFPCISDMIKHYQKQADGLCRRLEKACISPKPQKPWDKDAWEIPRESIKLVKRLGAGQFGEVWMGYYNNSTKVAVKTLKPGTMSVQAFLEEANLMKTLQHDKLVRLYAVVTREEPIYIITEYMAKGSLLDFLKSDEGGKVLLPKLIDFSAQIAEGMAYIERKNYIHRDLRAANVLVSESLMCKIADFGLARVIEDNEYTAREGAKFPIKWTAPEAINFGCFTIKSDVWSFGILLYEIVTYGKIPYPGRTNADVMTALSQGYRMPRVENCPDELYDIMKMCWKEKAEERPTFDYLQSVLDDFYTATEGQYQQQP
FLT-1, sequence (P17948 27-1338, species assumed): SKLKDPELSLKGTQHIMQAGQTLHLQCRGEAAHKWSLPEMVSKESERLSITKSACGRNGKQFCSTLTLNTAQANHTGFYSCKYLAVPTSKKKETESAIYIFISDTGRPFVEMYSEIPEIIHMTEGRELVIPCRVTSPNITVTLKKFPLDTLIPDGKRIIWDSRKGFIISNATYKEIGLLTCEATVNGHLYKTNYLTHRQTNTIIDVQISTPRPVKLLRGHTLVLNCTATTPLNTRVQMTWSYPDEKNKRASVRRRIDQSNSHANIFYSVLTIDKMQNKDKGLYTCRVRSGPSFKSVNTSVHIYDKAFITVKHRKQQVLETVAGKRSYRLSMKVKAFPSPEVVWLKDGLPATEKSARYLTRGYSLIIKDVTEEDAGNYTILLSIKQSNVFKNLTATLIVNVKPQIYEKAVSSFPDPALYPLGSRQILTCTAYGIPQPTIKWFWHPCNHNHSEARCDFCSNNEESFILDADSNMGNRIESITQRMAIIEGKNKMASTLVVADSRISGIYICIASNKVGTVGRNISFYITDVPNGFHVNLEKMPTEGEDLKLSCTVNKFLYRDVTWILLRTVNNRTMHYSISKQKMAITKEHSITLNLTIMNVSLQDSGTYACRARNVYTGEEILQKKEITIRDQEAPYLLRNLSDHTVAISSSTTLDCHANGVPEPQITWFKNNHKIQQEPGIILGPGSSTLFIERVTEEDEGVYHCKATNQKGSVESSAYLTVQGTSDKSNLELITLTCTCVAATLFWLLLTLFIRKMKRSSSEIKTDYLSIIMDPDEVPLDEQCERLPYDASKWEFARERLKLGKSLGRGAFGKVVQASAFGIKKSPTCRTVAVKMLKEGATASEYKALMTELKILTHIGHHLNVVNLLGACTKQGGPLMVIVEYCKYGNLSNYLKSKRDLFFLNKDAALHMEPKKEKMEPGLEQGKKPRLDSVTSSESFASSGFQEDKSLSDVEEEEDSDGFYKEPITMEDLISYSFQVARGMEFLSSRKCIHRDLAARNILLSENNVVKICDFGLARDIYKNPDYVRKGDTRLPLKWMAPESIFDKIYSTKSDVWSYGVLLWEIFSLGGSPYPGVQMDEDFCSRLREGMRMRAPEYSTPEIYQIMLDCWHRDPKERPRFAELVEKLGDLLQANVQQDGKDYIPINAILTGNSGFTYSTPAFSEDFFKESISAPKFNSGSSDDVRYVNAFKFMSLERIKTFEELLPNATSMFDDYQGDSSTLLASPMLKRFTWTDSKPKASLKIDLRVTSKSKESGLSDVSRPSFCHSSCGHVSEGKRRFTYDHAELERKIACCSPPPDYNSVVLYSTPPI
PDGFRβ, sequence (P09619 33-1106, species assumed): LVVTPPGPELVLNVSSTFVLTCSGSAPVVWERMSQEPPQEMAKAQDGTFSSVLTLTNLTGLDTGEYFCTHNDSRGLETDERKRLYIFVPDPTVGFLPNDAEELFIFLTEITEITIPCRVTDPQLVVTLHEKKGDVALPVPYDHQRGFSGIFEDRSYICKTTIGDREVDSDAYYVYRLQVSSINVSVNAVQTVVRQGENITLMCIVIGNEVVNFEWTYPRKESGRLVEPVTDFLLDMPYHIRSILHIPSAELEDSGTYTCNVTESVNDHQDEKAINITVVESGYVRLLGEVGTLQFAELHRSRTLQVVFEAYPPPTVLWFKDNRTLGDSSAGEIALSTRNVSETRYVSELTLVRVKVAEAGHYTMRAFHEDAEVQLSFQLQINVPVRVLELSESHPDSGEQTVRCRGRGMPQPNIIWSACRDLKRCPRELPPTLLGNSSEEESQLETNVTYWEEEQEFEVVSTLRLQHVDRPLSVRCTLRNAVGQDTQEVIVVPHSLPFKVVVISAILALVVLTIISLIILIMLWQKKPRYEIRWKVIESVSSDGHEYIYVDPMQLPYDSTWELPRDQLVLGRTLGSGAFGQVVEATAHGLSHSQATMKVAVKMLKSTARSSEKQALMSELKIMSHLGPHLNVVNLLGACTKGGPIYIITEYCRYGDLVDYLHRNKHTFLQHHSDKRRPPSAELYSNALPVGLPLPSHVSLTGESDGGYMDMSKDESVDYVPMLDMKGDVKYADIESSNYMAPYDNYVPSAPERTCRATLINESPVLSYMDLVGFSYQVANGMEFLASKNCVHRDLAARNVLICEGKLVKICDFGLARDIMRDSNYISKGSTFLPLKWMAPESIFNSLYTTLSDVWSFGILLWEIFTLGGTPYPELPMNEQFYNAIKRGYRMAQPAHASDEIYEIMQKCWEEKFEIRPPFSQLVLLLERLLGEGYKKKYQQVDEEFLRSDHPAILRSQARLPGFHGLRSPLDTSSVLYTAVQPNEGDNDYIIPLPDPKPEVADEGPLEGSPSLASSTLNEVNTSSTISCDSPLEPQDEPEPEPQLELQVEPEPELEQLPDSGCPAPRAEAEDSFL
CYP2C9, sequence (P11712 whole entry, species assumed): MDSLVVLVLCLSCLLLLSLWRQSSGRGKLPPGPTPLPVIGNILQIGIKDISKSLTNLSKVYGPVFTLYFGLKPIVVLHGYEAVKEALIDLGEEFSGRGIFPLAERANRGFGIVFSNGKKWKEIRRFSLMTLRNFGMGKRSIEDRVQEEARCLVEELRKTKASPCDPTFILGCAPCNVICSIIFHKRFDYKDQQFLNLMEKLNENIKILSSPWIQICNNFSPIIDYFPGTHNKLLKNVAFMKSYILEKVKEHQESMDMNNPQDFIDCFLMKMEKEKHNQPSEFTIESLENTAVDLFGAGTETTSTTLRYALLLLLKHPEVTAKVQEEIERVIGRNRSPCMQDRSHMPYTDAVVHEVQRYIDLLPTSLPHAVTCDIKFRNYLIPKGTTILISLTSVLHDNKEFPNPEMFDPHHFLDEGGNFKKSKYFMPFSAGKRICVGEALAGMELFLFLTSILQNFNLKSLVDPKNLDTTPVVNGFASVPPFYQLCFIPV
FGFR2, sequence (P21802 22-821, species assumed): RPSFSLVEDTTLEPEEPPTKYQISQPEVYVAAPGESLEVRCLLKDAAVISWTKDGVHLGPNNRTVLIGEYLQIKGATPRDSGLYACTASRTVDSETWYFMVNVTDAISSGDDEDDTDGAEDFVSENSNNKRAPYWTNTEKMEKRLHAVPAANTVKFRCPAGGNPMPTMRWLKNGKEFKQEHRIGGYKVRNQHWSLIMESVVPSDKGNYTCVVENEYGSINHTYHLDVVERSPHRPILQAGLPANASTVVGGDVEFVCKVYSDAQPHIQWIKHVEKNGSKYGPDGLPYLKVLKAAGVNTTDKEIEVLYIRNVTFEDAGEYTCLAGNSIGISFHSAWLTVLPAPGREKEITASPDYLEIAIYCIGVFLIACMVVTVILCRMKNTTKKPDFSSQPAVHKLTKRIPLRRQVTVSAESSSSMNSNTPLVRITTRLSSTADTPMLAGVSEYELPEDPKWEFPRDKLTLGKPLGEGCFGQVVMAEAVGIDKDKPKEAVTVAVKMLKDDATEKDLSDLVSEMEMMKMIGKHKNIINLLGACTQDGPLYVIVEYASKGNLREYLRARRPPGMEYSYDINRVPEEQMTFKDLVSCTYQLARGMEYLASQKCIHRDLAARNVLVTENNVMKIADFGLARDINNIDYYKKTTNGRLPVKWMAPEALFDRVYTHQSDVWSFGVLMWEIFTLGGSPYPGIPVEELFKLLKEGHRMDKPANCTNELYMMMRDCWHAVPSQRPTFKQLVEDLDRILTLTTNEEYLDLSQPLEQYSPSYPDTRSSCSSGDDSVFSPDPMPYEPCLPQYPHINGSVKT

COc1ccc(-c2cc(-c3ccc(O)c(O)c3)cc(=O)[nH]2)cc1OC [Compound XI]
inhibition at 10 µM (Lyn): 99% | inhibition at 10 µM (FLT-3): 93% | inhibition at 10 µM (C-Met (HGFR)): 58% | inhibition at 10 µM (FGFR2): 98% | inhibition at 10 µM (Fyn): 100% | inhibition at 10 µM (KDR (VEGFR2)): 96% | inhibition at 10 µM (CSK): 98% | inhibition at 10 µM (PDGFRβ): 91% | inhibition at 10 µM (FLT-1): 98% | inhibition at 10 µM (FGFR4): 85%

CCCOc1ccc(-c2cc(-c3ccc(OC)c(OC)c3)[nH]c(=O)c2)cc1 [Compound II]
IC50 at 96 h [1]: > 50 µM | toxicity / activity in CYP1A1 expressing CHO cells (in words) (CHO/CYP1A1 cells): non toxic | toxicity to wild-type CHO cells (in words) (wild-type CHO cells): non toxic | IC50 (wild-type CHO cells; Cricetulus griseus, CHO, 96 h, MTS): > 50 µM | Mean Parent Remaining (%) (CYP1A2): 69% | Mean Parent Remaining (%) (CYP3A5; 1 μM, after 60 minutes): 126% | IC50 at 96 h [2]: 0.09 ± 0.05 µM | activity against CHO/CYP1B1 cells (in words) (CHO/CYP1B1 cells): strongly inhibit proliferation | wet tumour weight at the end of the study (FIG. 2) [3]: dose dependent reduction in wet tumour weight | Mean Parent Remaining (%) (CYP2C9): 130% | Mean Parent Remaining (%) (CYP2C19): 127% | Mean Parent Remaining (%) (CYP2D6): 127% | Mean Parent Remaining (%) (CYP3A4): 122%

Cc1ncc2n1-c1ccc(Cl)cc1C(c1ccccc1F)=NC2 [Midazolam, reference compound]
% Reference Compound Remaining (CYP3A5; reference compound): 1%
